Data taken from patent EP0557303B1, “N- (2-THENOYLMERCAPTO-3-METHYL)-BUTANOYL]-HOMOCYSTEINE THIOLACTONE, A PROCESS FOR THE PREPARATION THEREOF AND PHARMACEUTICAL COMPOSITIONS CONTAINING IT” (priority 1990, dated 1992).

How the values were obtained:
[1] = system: collagenase from Clostridium Histolyticum; assay: Collagenase inhibiting activity (method of Appel, substrate N-carbobenzoxy-pro-gly-gly-L-pro-L-alanine); assay type: biochemical; settings: collagenase type II (Sigma), collagen synthetic peptide substrate
Procedure: The proteolytic activity of collagenase from Clostridium Histolyticum (Sigma, type II) was dosed according to the method by Appel (Method in enzymatic analysis, H.U. Bergmayer Vol. 2, pp. 1058-1063; 1978) using the collagen synthetic peptide N-carbobenzoxy-pro-gly-gly-L-pro-L-alanine as the substrate.

[2] = system: arteriosclerotic lesions induced by the diet in the rabbit; assay: Antiarteriosclerotic activity (procedure of C.T. Cahn, diet-induced lesions); assay type: in vivo; settings: compound given together with the diet, end of a 12 week treatment
Procedure: The antiarteriosclerotic activity was tested according to the procedure described by C.T. Cahn, Circul. Research, 43, 115, 1975. The procedure consists in verifying any protecting actions of a drug on arteriosclerotic lesions induced by the diet in the rabbit.

SMILES | inhibiting activity [1] | cholesterol levels [2] | collagen levels in the connective tissue of the aorta intima [2] | elastin levels in the connective tissue of the aorta intima [2] | triglyceride levels [2] | IC50 ([1]; read-out: IC₅₀) [nM]
CC(SC(=O)c1cccs1)C(=O)NC1CCSC1=O (stereo not drawn) [MR-889, 2-(2-Thenoylthio)-N-(2',3',4',5'-tetrahydro-2'-keto-thiophen-3'-yl)propionyl amide, reference compound] | almost no inhibiting activity |  |  |  |  | 
CC(C)C(SC(=O)c1cccs1)C(=O)NC1CCSC1=O (stereo not drawn) [MR-2047, N-[(2-thenoylmercapto-3-methyl)-butanoyl]-homocysteine thiolactone] |  | significant reduction | significant reduction | significant reduction | significant reduction | ~2000
